Literature values, collected in US20110009348A1, “CARBOHYDRATE GEL” (priority 2008, published 2011).

Tested on: male cyclists
Settings: comparison values given in text, source not stated

O=C(CO)[C@@H](O)[C@H](O)[C@H](O)CO [fructose]
peak oxidation achieved with a single carbohydrate source: ~0.4 g/min
